Measured values taken from PMC11570312, “Development, optimization, and characterization of polymeric micelles to improve dasatinib oral bioavailability: Hep G2 cell cytotoxicity and in vivo pharmacokinetics for targeted liver cancer therapy” (Heliyon, 2024).

How the values were obtained:
[1] = In vitro release of dasatinib (dialysis bag); format: physicochemical; conditions: 12 h, pH 7.4, 37 °C
Description: To imitate the journey of polymeric micelles through the gastrointestinal tract, an in vitro drug release test was conducted. To simulate drug release from polymeric micelles, a release test was conducted using a phosphate buffer solution at pH 7.4 over 12 h, starting at the 0.5-h mark. The pH of human blood and most bodily tissues is roughly 7.4. Performing the release research at this pH allows us to forecast how dasatinib will behave once taken into the bloodstream and dispersed throughout the body. […] This information aids in evaluating how much of the drug can reach the systemic circulation for therapeutic activity. Each test was performed in a medium containing 0.5 % w/v Tween 20 to maintain sink conditions. A dialysis bag containing 1 mL of a freshly prepared dispersion of dasatinib-loaded micelles was sealed with clips and placed into a glass container filled with 90 mL of […]. This setup was incubated in a water bath set at 37 °C with agitation at 150 rotations per minute. At specified time intervals ([…]), 5 mL samples of the release medium were withdrawn and replaced with fresh medium to maintain volume consistency. The amount of drug released was measured by analyzing the UV absorbance of the samples at 323 nm. A standard curve for […] in each medium was used for the quantification. […]

[2] = tested on: HepG2 cells; experiment: Cellular uptake (fluorescence microscopy, flow cytometry); format: cell-based, human; conditions: HepG2, 50 and 100 μg/mL DAS, 1 and 4 h
Description: The cellular uptake of DAS polymeric micelles was evaluated by examining the uptake of DAS by HepG2, hepatocellular carcinoma, and murine melanoma cells after exposure to free DAS and DAS-PMs micelles. Cells were visualized under a fluorescence microscope, and the DAS fluorescence intensity in treated cells was measured using flow cytometry. Fluorescent micrographs depicted HepG2 cells that had been treated with free DAS and DAS-PMs for durations of 0, 1, and 4 h. […] This rise was in comparison to the control group. However, DAS-PMs may quickly accumulate in HepG2 cells, as indicated by the vivid green fluorescence—even just 1 h after. When cells were treated with DAS-PMs for 4 h, the fluorescence intensity increased much more than after 1 h. At the 1- and 4-h time points, the fluorescence intensity in cells treated with 100 μg/mL of DAS in DAS-PMs was considerably higher than that in cells treated with 50 μg/mL of DAS. The dose- and time-dependent rise in fluorescence intensity was quantitatively evaluated using flow cytometry on HepG2 cell lines, as illustrated in Fig. 12.

[3] = tested on: HepG2 cell lines; experiment: Cellular apoptosis with flow cytometry (Annexin V-FITC/PI); format: cell-based, human; conditions: HepG2, IC50 dose
Description: HepG2 cell lines, obtained from NCCS Pune, were cultured and treated with the compound's IC-50 dosage. Post-treatment, the cells were divided into five groups: unstained cells, control group, annexin-only, PI-only, and treatment. The cells were then resuspended in 1X binding buffer at a concentration of 1 × 10^6 cells/mL. FITC and PI from Annexin V were added to the appropriately labeled tubes. According to Zhan et al., 1X binding buffer was added to each tube, and they were incubated for 15 min at room temperature. The samples were analyzed using a BD FACS Lyric™ flow cytometer within an hour.

[4] = MTT/SRB cytotoxicity assay; format: cell-based; conditions: human, HepG2 cells; HepG2, after 48 h
Description: The MTT assay was performed to assess the cytotoxicity of the samples on the HepG2 cell line. Approximately 8000 cells per well were cultured in a 96-well plate for 24 h at 37 °C with 5 % CO2 in DMEM medium supplemented with 10 % FBS and 1 % antibiotic solution. The following day, cells were exposed to various dosages and concentrations ranging from 1 to 2500 μM, prepared using incomplete medium to achieve the desired concentrations. After a 24-h incubation period, 100 μL of 10 % trichloroacetic acid (TCA) was added to each well and incubated for 1 h. Then, the plate was washed with distilled water and allowed to dry at room temperature. MTT solution was added to each well at a final concentration of 0.04 % and was allowed to sit for 1 h. After an hour of incubation, the plate was air-dried at room temperature before being cleaned with 1 % (v/v) acetic acid to remove any remaining color. To solubilize the protein-bound dye, Tris base solution (pH = 10.5) was added to a well and shaken for 10 min on an orbital shaker. The protein-bound dye was then detected at 510 nm using an ELISA plate reader (iMark, Biorad, USA).
The cytotoxicity of the samples was evaluated using the HepG2 cell line, obtained from NCCS Pune, through the MTT assay. […] The results were measured at 540 nm and 660 nm using a Bio-Rad ELISA plate reader (USA). The IC50 value was calculated using GraphPad Prism 9 software. […]

[5] = tested on: HepG2 cells; experiment: ROS estimation with flow cytometry (DCFDA); format: cell-based, human; conditions: HepG2, 24 h, Control 1 %
Description: Cells were seeded into six-well plates at densities ranging from 5000 to 10,000 HepG2 cells per well, using 1 mL of DMEM media supplemented with 10 % FBS and 1 % antibiotic solution. The plates were then incubated at 37 °C with 5 % CO2 for 24 h. Prior to treatment, the old culture medium was replaced with fresh medium, designating untreated cells as controls. Following the protocol by Gupta et al. cells were treated with various agents and further incubated for 24 h. After incubation, the medium was removed, and cells were detached using trypsin-EDTA, transferred to 1.5 mL tubes, and washed with 500 μl of cold PBS. The cell pellet was resuspended in 100 μl of PBS containing 2 μM DCFDA, and samples were incubated for 1 h before analysis using a BD FACS Calibur flow cytometer (USA). Data were processed using version 2.5.1 of the Flowing software program.

[6] = tested on: HepG2 cells; experiment: Cell cycle analysis with flow cytometry; format: cell-based, human; conditions: HepG2, 24 h at IC50
Description: Specimens were placed on cells and incubated for 24 h. The cells that were not subjected to any treatment were the control cells. After the set incubation duration, trypsin was applied to detach the cells. Subsequently, the cells were gathered in a 1.5-mL vial and rinsed with 500 μL of chilled PBS [39]. A suspension of approximately 10^6 cells was prepared by gently vortexing 100 μL of PBS, resulting in a monodispersed cell suspension with minimal aggregation. The cells were then fixed by adding this solution to centrifuge tubes containing 900 μL of 70 % ethanol on ice, followed by incubation at 4 °C for at least 2 h. Cells can be stored in 70 % ethanol at 4 °C for several weeks. According to Sun et al. after centrifugation post-fixation, the cell pellet was resuspended in 500 μL of Propidium Iodide (PI) staining solution (0.1 % (v/v) Triton X-100, 10 μg/mL PI, and 100 μg/mL DNase-free RNaseA in PBS). The mixture was incubated in the dark for 30 min at room temperature or 10 min at 37 °C. Finally, samples were analyzed using a flow cytometer.

[7] = tested on: HepG2 liver cell lines; experiment: In-vitro scratch assay; format: cell-based, human; conditions: HepG2, after 48 h of treatment
Source text: The aim of the in-vitro scratch test is to assess how effectively cancer cell growth is curbed.

[8] = In vivo pharmacokinetics; parameters: species or system Male Wistar rats; conditions: male, Wistar; for Cmax / Tmax: rat plasma
Description: Male Wistar rats, each weighing 200 ± 10 g, were obtained from the Experimental Animal Centre at NMIMS University. The study was conducted in accordance with the guidelines approved by the NMIMS University Animal Experimental Ethics Committee (protocol number SPTM/09/2023/IAEC/05). […] The total dose of DAS in two group was 5 mg/kg via intravenous. Blood samples (0.4 mL) were collected from the rats via intravenous injection at specified time intervals (0.5, 1, 2, 3, 4, 5, 6, 8, 10, and 12 h) and were immediately transferred into heparinized tubes. The samples were centrifuged at 12,000 rpm for 10 min to separate the plasma, which was then stored at −20 °C until analysis. The plasma samples were subsequently subjected to high-performance liquid chromatography (HPLC) to determine the concentration of dasatinib. The blood extraction process was conducted as follows: Initially, 15 μL of an internal standard solution (methanol, 10 μg/mL) was added to each tube containing 0.4 mL of blood, followed by vortexing for 1 min. Subsequently, 1 mL of acetonitrile was added, and the mixture was vortexed for an additional minute. The samples were then centrifuged at 12,000 rpm for 10 min. After centrifugation, the organic layer was carefully transferred to a sterile tube and evaporated under a gentle nitrogen stream. The dried extracts were reconstituted in 0.4 mL of a methanol/water solution (70/30, v/v) before undergoing high-performance liquid chromatography (HPLC) analysis. The pharmacokinetic parameters were calculated using the DAS 2.1.1 software (Shanghai, China).

[9] = plasma, rat, 5 mg/kg via intravenous

For `Cc1nc(Nc2ncc(C(=O)Nc3c(C)cccc3Cl)s2)cc(N2CCN(CCO)CC2)n1` [DAS, dasatinib], the drug released [1] was 40%, the “fluorescence intensity (cellular uptake)” value [2] was “slight rise in fluorescence intensity” and the early apoptotic cells ([3]; control 3.38 %) was 0.6%. The necrotic cells ([3]; control 13.28 %) was 18.1%, the late apoptotic cells ([3]; control 19.56 %) was 72.4% and the viability at 48 h [4] was 12.2 ± 0.63%. The “ROS, MFI-positive cells” value [5] was 3.09%, the “percentage of cells in G2 phase” value ([6]; control 18.14 %) was 11.94% and the “percentage of cells in S phase” value ([6]; control 20.04 %) was 14.22%. The “percentage of cells in G1 phase” value ([6]; control 58.18 %) was 67.14%, the “cell migration (scratch wound)” value [7] was “curbed cell migration” and the Cmax ([8]; intravenous, 5 mg/kg) was 12330 ± 60 ng/mL. It also gave a Tmax ([8]; intravenous, 5 mg/kg) of 2 h, an MRT [8, 9] of 3.3 h and a half-life [8, 9] of 4.08 ± 0.786 h. It also gave a Cmax ([8]; 5 mg/kg via intravenous) of 12300 ± 2310 ng/mL and a Tmax ([8]; 5 mg/kg via intravenous) of 2 h.
